# Assays:
# MCF-7 cells = assay: Cellular proliferation EdU assay, MCF-7; type: cell-based; settings: Homo sapiens, MCF7, 48 h, EdU assay, two days; read-out: MCF-7 IC50
# Procedure, shortened: (§1)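 MCF-7 (800 cells/well) and OVCAR3 (1200 cells/well) in RPMI with 10% FBS exposed to compounds for two days at 37 °C.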
# OVCAR3 cells = assay: Cellular proliferation EdU assay, OVCAR3; type: cell-based, human; settings: Homo sapiens, OVCAR-3, 48 h, EdU assay, two days; read-out: OVCAR3 IC50
# Procedure, shortened: as §1
# [1] = system: POLR2A Ser2 phosphorylation (CDK9); assay: POLR2A Ser2 phosphorylation imaging assay in MCF-7 cells; type: cell-based; settings: Homo sapiens, MCF7, 2 h, MCF-7 cells, 2 hours; read-out: POLR2A Ser2 phosphorylation IC50
# Procedure, shortened: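 MCF-7 cells were fixed, permeabilised and immunostained for POLR2A phospho-Ser2, then imaged by high-content microscopy. Levels were normalised to controls and IC50 values derived.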
# CDK2:CCNE1 = CDK2:CCNE1 (Homo sapiens (Human), UniProt P24941); assay: NanoBRET assay in MCF-7 cells, CDK2; type: cell-based; settings: transfected MCF-7 cells, 2 hours, n = 1 or average
# Procedure, shortened: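 In live MCF-7 cells, compound added followed by NanoBRET TE Tracer K-9 (stock 200 μM) for CDK2, 2 h at 37° C, 5% CO2.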
# [2] = CLint assessment in human liver microsomes (HLM); type: in vitro ADME; settings: 1 μM
# Protocol: After a preincubation with NADPH for 8 minutes, reactions were initiated through the addition of the test compound (final volume 250 μl) and incubated at 37° C. in a water bath for 30 minutes. […] Samples were shaken at 800 rpm for 2 minutes and centrifuged at 4000 rpm for 20 minutes at 4° C. to pellet precipitated protein. The supernatant fraction was diluted 1:5 with deionized water, shaken at 1000 rpm for 2 minutes, and further diluted 1:1 with deionized water. Samples were analyzed by LC-MS/MS. The t1/2 and the CLint of the compounds incubated in the LM, HLM, and HμREL assays as described above were calculated according to the following equations: […] where V (μl/×10^6 cells or mg protein) is the incubation volume (μl) divided by the number of cells (×10^6) or microsomal protein content (mg) in the incubation.
# [3] = Aqueous thermodynamic solubility, shake-flask; type: physicochemical; settings: aqueous phosphate buffer, 25 °C, pH 7.4, aqueous buffer, thermodynamic from solid, phosphate buffer 0.1 M, pH 7.4, 24 hours
# Procedure, shortened: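 After 24 h stirring at 25° C. in pH 7.4 phosphate buffer (0.1 M), solid-free supernatant from two centrifugations was quantified by UPLC/MS/MS after dilution in water. Compound was added as dried material after DMSO removal.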
# CDK4:CCND1 = CDK4:CCND1 (Homo sapiens (Human), UniProt P11802); assay: NanoBRET assay in MCF-7 cells, CDK4; type: cell-based; settings: NanoBRET, transfected MCF-7 cells, 2 hours; n = 1 or average; read-out: CDK4 IC50
# Chain of CDK4:CCND1 (P11802 whole entry): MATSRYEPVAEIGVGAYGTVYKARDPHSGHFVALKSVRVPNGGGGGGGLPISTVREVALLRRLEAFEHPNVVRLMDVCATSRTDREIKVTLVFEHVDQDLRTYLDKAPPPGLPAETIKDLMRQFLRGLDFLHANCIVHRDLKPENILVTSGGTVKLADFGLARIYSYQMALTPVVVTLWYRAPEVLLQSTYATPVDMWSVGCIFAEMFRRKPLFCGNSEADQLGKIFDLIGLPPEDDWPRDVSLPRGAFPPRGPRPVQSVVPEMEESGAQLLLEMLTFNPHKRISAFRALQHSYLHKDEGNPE
# Chain of CDK4:CCND1 (P24385 whole entry partner): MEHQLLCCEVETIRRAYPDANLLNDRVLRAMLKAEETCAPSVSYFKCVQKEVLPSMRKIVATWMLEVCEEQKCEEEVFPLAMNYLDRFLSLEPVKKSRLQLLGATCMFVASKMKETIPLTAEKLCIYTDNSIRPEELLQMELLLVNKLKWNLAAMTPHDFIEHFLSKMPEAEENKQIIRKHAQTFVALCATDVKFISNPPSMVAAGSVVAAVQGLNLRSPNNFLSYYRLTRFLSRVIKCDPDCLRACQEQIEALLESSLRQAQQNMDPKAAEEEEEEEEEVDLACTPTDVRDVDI
# Procedure, shortened: (§2)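 Intracellular target engagement was measured by NanoBRET ratio (460 nm/610 nm) in live MCF-7 cells transiently carrying CDK4:CCND1 (Tracer K-7, 100 μM stock) or CDK1:CCNB1 (Tracer K-9, 400 μM stock).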
# CDK1:CCNB1 = CDK1:CCNB1 (Homo sapiens (Human), UniProt P06493); assay: NanoBRET assay in MCF-7 cells, CDK1; type: cell-based; settings: NanoBRET, transfected MCF-7 cells, 2 hours; n = 1 or average; read-out: CDK1 IC50
# Chain of CDK1:CCNB1 (P06493 whole entry): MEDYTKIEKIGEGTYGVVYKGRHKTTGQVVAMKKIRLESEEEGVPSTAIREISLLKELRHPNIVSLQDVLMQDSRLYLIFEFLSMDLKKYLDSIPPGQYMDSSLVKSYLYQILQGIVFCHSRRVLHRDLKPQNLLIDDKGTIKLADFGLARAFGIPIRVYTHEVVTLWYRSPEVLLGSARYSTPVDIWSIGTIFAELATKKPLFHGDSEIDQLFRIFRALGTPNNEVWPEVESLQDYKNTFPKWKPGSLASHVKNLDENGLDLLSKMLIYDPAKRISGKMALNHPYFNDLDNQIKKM
# Chain of CDK1:CCNB1 (P14635 whole entry partner): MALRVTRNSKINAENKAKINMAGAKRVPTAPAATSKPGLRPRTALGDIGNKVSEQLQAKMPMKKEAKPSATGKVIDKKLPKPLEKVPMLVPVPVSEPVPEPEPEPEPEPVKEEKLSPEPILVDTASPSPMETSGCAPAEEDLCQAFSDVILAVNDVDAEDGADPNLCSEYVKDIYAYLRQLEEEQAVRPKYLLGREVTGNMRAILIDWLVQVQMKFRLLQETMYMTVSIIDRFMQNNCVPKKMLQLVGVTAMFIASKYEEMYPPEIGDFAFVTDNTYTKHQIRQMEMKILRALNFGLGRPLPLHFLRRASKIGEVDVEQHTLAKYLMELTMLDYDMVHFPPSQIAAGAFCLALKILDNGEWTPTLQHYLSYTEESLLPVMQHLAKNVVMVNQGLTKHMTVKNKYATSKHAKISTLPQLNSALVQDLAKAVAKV
# Procedure, shortened: as §2
# [4] = system: NPM phosphorylation (Thr199, CDK2-cyclin E complex); assay: NPM phosphorylation imaging assay in MCF-7 cells; type: cell-based; settings: Homo sapiens, 4N DNA cells
# Procedure, shortened: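 MCF-7 cells were fixed, permeabilised and immunostained, then imaged for phospho-NPM (Thr199), a CDK2-cyclin E site. Analysis was gated on 4N-DNA cells by Hoechst staining. Signals were normalised to controls and fitted for IC50.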
structure (smiles),measurement,setting,value
"CCn1cnc2c(N[C@H]3CCN(S(=O)(=O)NC)C3)nc(-c3cccc4c3CC[C@H]4O)nc21 [Example 2, (S)-3-((9-ethyl-2-((R)-1-hydroxy-2,3-dihydro-1H-inden-4-yl)-9H-purin-6-yl)amino)-N-methylpyrrolidine-1-sulfonamide]",IC50,MCF-7 cells,1360 nM
same,IC50,OVCAR3 cells,404 nM
same,IC50,[1],15400 nM
same,IC50,CDK2:CCNE1,29 nM
same,HLM CLint,[2],61.6 µL/min/mg
same,solubility at 24 h,[3],55 µM
same,IC50,CDK4:CCND1,17800 nM
same,IC50,CDK1:CCNB1,904 nM
same,IC50,"[4]; MCF7, 2 h",301 nM
"CCn1cnc2c(N[C@H]3CCN(S(=O)(=O)CCOC)C3)nc(N[C@@H](CO)C(C)C)nc21 [Example 42, (R)-2-((9-ethyl-6-(((S)-1-((2-methoxyethyl)sulfonyl)pyrrolidin-3-yl)-amino)-9H-purin-2-yl)amino)-3-methylbutan-1-ol]",IC50,MCF-7 cells,925 nM
same,IC50,OVCAR3 cells,428 nM
same,IC50,[1],> 30000 nM
same,IC50,CDK2:CCNE1,27 nM
same,HLM CLint,[2],196 µL/min/mg
same,solubility at 24 h,[3],167 µM
same,IC50,CDK4:CCND1,4500 nM
same,IC50,CDK1:CCNB1,875 nM
same,IC50,"[4]; MCF7, 2 h",310 nM
"CC(C)n1cnc2c(N[C@H]3CCN(S(C)(=O)=O)C3)nc(N[C@@H](CO)C3CC3)nc21 [Example 30, (R)-2-cyclopropyl-2-((9-isopropyl-6-(((S)-1-(methylsulfonyl)-pyrrolidin-3-yl)amino)-9H-purin-2-yl)amino)ethanol]",IC50,MCF-7 cells,785 nM
same,IC50,OVCAR3 cells,191 nM
same,IC50,[1],> 30000 nM
same,IC50,CDK2:CCNE1,19 nM
same,HLM CLint,[2],191 µL/min/mg
same,solubility at 24 h,[3],276 µM
same,IC50,CDK4:CCND1,5700 nM
same,IC50,CDK1:CCNB1,746 nM
same,IC50,"[4]; MCF7, 2 hours",198 nM
"CC[C@H](Nc1nc(N[C@@H]2CN(S(=O)(=O)NC)C[C@H]2F)c2ncn(CC)c2n1)[C@@H](C)O (relative stereo) [Example 52, (3R*,4R*)-3-((9-ethyl-2-(((2R,3S)-2-hydroxypentan-3-yl)amino)-9H-purin-6-yl)amino)-4-fluoro-N-methylpyrrolidine-1-sulfonamide]",IC50,MCF-7 cells,1020 nM
same,IC50,OVCAR3 cells,252 nM
same,IC50,[1],11100 nM
same,IC50,CDK2:CCNE1,21 nM
same,HLM CLint,[2],21.1 µL/min/mg
same,solubility at 24 h,[3],300 µM
same,IC50,CDK4:CCND1,16800 nM
same,IC50,CDK1:CCNB1,1200 nM
same,IC50,"[4]; MCF7, 2 h",151 nM
"CC(C)n1cnc2c(N[C@H]3CCN(S(C)(=O)=O)C3)nc(NC(CO)C3CCCO3)nc21 (stereo partly drawn) [Example 16, 2-((9-isopropyl-6-(((S)-1-(methylsulfonyl)pyrrolidin-3-yl)amino)-9H-purin-2-yl)amino)-2-(tetrahydrofuran-2-yl)ethan-1-ol]",IC50,MCF-7 cells,2520 nM
same,IC50,OVCAR3 cells,964 nM
same,IC50,[1],> 30000 nM
same,IC50,CDK2:CCNE1,93 nM
same,HLM CLint,[2],96.5 µL/min/mg
same,solubility at 24 h,[3],> 1000 µM
same,IC50,CDK4:CCND1,17200 nM
same,IC50,CDK1:CCNB1,1600 nM
same,IC50,"[4]; MCF7, 2 h",368 nM
"CC[C@H](Nc1nc(N[C@H]2CCN(S(N)(=O)=O)C2)c2ncn(CC)c2n1)C(C)=O [Example 10, (S)-3-((9-ethyl-2-(((S)-2-oxopentan-3-yl)amino)-9H-purin-6-yl)amino)pyrrolidine-1-sulfonamide]",IC50,MCF-7 cells,2940 nM
same,IC50,OVCAR3 cells,1300 nM
same,IC50,[1],> 30000 nM
same,IC50,CDK2:CCNE1,100 nM
same,HLM CLint,[2],17.6 µL/min/mg
same,solubility at 24 h,[3],> 904 µM
same,IC50,CDK4:CCND1,> 23100 nM
same,IC50,CDK1:CCNB1,4620 nM
same,IC50,"[4]; MCF7, 2 h",481 nM
"CC(C)[C@H](CO)Nc1nc(N[C@H]2CCN(S(C)(=O)=O)C2)c2ncn(C3CC3)c2n1 [Example 29, (R)-2-((9-cyclopropyl-6-(((S)-1-(methylsulfonyl)pyrrolidin-3-yl)amino)-9H-purin-2-yl)amino)-3-methylbutan-1-ol]",IC50,MCF-7 cells,2420 nM
same,IC50,OVCAR3 cells,1380 nM
same,IC50,[1],> 30000 nM
same,IC50,CDK2:CCNE1,90 nM
same,HLM CLint,[2],90.5 µL/min/mg
same,solubility at 24 h,[3],71.2 µM
same,IC50,CDK4:CCND1,> 29700 nM
same,IC50,CDK1:CCNB1,3700 nM
same,IC50,"[4]; MCF7, 2 h",2190 nM
"CC[C@H](Nc1nc(N[C@H]2CCN(S(=O)(=O)NC[C@H]3COCCO3)C2)c2ncn(CC)c2n1)[C@@H](C)O [Example 23, (S)—N—(((S)-1,4-dioxan-2-yl)methyl)-3-((9-ethyl-2-(((2R,3S)-2-hydroxypentan-3-yl)amino)-9H-purin-6-yl)amino)pyrrolidine-1-sulfonamide]",IC50,MCF-7 cells,1950 nM
same,IC50,OVCAR3 cells,495 nM
same,IC50,[1],> 30000 nM
same,IC50,CDK2:CCNE1,57 nM
same,HLM CLint,[2],57.5 µL/min/mg
same,solubility at 24 h,[3],814 µM
same,IC50,CDK4:CCND1,> 29700 nM
same,IC50,CDK1:CCNB1,2600 nM
same,IC50,"[4]; MCF7, 2 hours",484 nM
"CCn1cnc2c(N[C@H]3CCN(S(=O)(=O)CC(F)(F)F)C3)nc(N[C@@H](CO)C(C)C)nc21 [Example 40, (R)-2-((9-ethyl-6-(((S)-1-(2,2,2-trifluoroethylsulfonyl)pyrrolidin-3-yl)amino)-9H-purin-2-yl)amino)-3-methylbutan-1-ol]",IC50,MCF-7 cells,2710 nM
same,IC50,OVCAR3 cells,6720 nM
same,IC50,[1],> 30000 nM
same,IC50,CDK2:CCNE1,24 nM
same,HLM CLint,[2],>300 µL/min/mg
same,solubility at 24 h,[3],1.79 µM
same,IC50,CDK4:CCND1,4300 nM
same,IC50,CDK1:CCNB1,587 nM
same,IC50,"[4]; MCF7, 2 h",253 nM
"CC(C)[C@H](CO)Nc1nc(N[C@H]2C[C@@H](C)N(S(C)(=O)=O)C2)c2ncn(C(C)C)c2n1 [Example 34, (R)-2-((9-isopropyl-6-(((3S,5R)-5-methyl-1-(methylsulfonyl)-pyrrolidin-3-yl)amino)-9H-purin-2-yl)amino)-3-methylbutan-1-ol]",IC50,MCF-7 cells,1150 nM
same,IC50,OVCAR3 cells,487 nM
same,IC50,[1],> 30000 nM
same,IC50,CDK2:CCNE1,12 nM
same,HLM CLint,[2],>300 µL/min/mg
same,solubility at 24 h,[3],59.9 µM
same,IC50,CDK4:CCND1,11800 nM
same,IC50,CDK1:CCNB1,844 nM
same,IC50,"[4]; MCF7, 2 hours",381 nM
"CCNS(=O)(=O)N1CC[C@H](Nc2nc(N[C@@H](CO)CC3CC3)nc3c2ncn3CC)C1 (relative stereo) [Example 58, (S)-3-((2-(((R*)-1-cyclopropyl-3-hydroxypropan-2-yl)amino)-9-ethyl-9H-purin-6-yl)amino)-N-ethylpyrrolidine-1-sulfonamide]",IC50,MCF-7 cells,874 nM
same,IC50,OVCAR3 cells,431 nM
same,IC50,[1],> 30000 nM
same,IC50,CDK2:CCNE1,17 nM
same,HLM CLint,[2],202 µL/min/mg
same,solubility at 24 h,[3],51.9 µM
same,IC50,CDK4:CCND1,1700 nM
same,IC50,CDK1:CCNB1,671 nM
same,IC50,"[4]; MCF7, 2 h",137 nM
"CC[C@H](Nc1nc(N[C@H]2CCN(S(=O)(=O)NC)C2)c2ncn(CC)c2n1)C(C)(C)O [Example 46, (S)-3-((9-ethyl-2-(((S)-2-hydroxy-2-methylpentan-3-yl)amino)-9H-purin-6-yl)amino)-N-methylpyrrolidine-1-sulfonamide]",IC50,MCF-7 cells,3170 nM
same,IC50,OVCAR3 cells,1370 nM
same,IC50,[1],> 30000 nM
same,IC50,CDK2:CCNE1,192 nM
same,HLM CLint,[2],76.6 µL/min/mg
same,solubility at 24 h,[3],> 1000 µM
same,IC50,CDK4:CCND1,23700 nM
same,IC50,CDK1:CCNB1,8370 nM
same,IC50,"[4]; MCF7, 2 hours",1170 nM
"CCNS(=O)(=O)N1CC[C@H](Nc2nc(N[C@@H](C)C(C)(C)O)nc3c2ncn3CC)C1 (relative stereo) [Example 59, (S)—N-ethyl-3-((9-ethyl-2-(((R*)-3-hydroxy-3-methylbutan-2-yl)-amino)-9H-purin-6-yl)amino)pyrrolidine-1-sulfonamide]",IC50,MCF-7 cells,1780 nM
same,IC50,OVCAR3 cells,950 nM
same,IC50,[1],> 30000 nM
same,IC50,CDK2:CCNE1,37 nM
same,HLM CLint,[2],35.9 µL/min/mg
same,solubility at 24 h,[3],> 1000 µM
same,IC50,CDK4:CCND1,11400 nM
same,IC50,CDK1:CCNB1,1690 nM
same,IC50,"[4]; MCF7, 2 h",337 nM

# Source: patent US20250197425A1, “2,6,9-TRISUBSTITUTED PURINES” (ASTRAZENECA AB, priority 2022, published 2025)
